This note sets out measurements from patent publication US6825192B1, “Heterodiazinone derivatives” (Eisai Co., Ltd., priority 1999, dated 2004).

Counter-ions that a name gives are not always drawn.

The subject of the first series is AMPA receptor. Description: Inhibitory action on AMPA-inducing inflow of calcium into nerve cells (Fura2-AM). It is filed as cell-based. The settings on record: rat cerebral cortex nerve cells on astrocytes, 1 μM MK-801, stimulated by 2 μM AMPA, fluorescence 340/380 nm. How it is done:
The cerebral cortex was excised from the brain of a rat on day 18 after birth and treated with trypsin and DNase, whereby the cells were dispersed. The cells were allowed to float on DMEM containing 10% serum, inoculated into a culture bottle, and their astrocytes were grown. The astrocytes were re-dispersed with trypsin and inoculated onto each well on a 96-well plate. After it was confirmed that the bottom of each well was completely covered with the astrocytes after culture for 1 week, cerebral cortex nerve cells dispersed in the same manner as above were inoculated thereon. After 24 hours, the medium was exchanged with fresh one, and after culture for further 1 week, the medium was exchanged with a medium containing 1 μM MK-801.
The inflow of calcium into the cells was measured using Fura2-AM that is a calcium-sensitive fluorescent pigment. By treating the cells with a Fura2-AM-containing medium for 1 hour, Fura2-AM was incorporated into the cells, and the medium was exchanged with a Tyrode solution containing 1 μM MK-801. After a test compound was added, the cells were stimulated by 2 μM AMPA. The change in the amount of calcium flowing into the cells was measured as a change in the fluorescence intensity at wavelengths of 340/380 nm. The effect of a test compound was evaluated where the reaction caused by AMPA added to the Tyrode solution free of the test compound was used as the control.
One may read the IC50 as the midpoint of a concentration-inhibition curve. Regarding `N#Cc1ccccc1N1N=C(c2ccccc2)OCC1=O` [Example 36, 2-Phenyl-4-(2-cyanoeyphenyl)-4H-1,3,4-oxadiazine-5(6H)-one], the IC50 was 2.28 µM.
As for `Cl.O=C1COC(c2ccccc2OCCN2CCOCC2)=NN1c1ccccc1Br` [Example 68, 2-{2-[2-(4-Morpholinyl)ethoxy]phenyl}-4-(2-bromophenyl)-4H-1,3,4-oxadiazine-5(6H)-one hydrochloride], the IC50 came to 11.1 µM.
The same measure, in the same setting: next, `O=C1COC(c2ccccc2)=NN1c1ccccc1[N+](=O)[O-]` [Example 37, 2-Phenyl-4-(2-nitrophenyl)-4H-1,3,4-oxadiazine-5(6H)-one]: 3.94 µM; `O=C1COC(c2ccccn2)=NN1c1ccccc1I` [Example 105, 2-(2-Pyridyl)-4-(2-iodophenyl)-4H-1,3,4-oxadiazine-5(6H)-one]: 1.9 µM.
As to `CN(CCOc1ccccc1C1=NN(c2ccccc2Br)C(=O)CO1)Cc1ccccc1` [Example 103, 2-{2-[2-(N-Benzyl-N-methyl)amino]ethoxyphenyl}-4-(2-bromophenyl)-4H-1,3,4-oxadiazine-5(6H)-one], the IC50 is 4.2 µM.
The same measure, in the same setting: as for `N#Cc1cccc(N2N=C(c3ccccc3)OCC2=O)c1` [Example 46, 2-Phenyl-4-(3-cyanophenyl)-4H-1,3,4-oxadiazine-5(6H)-one], the figure is 13.1 µM; as for `O=C1COC(c2ccccc2OCc2cccnc2)=NN1c1ccccc1` [Example 58, 2-[2-(3-Pyridyl)methoxyphenyl]-4-phenyl-4H-1,3,4-oxadiazine-5(6H)-one hydrochloride], 14.3 µM.
For the compound `O=C1COC(c2ccncc2)=NN1c1ccccc1` [Example 94, 2-(4-Pyridyl)-4-phenyl-4H-1,3,4-oxadiazine-5(6H)-one hydrochloride], the IC50 was 98.7 µM.
As to `Cc1cccc(C2=NN(c3ccccc3)C(=O)CO2)n1` [Example 8, 2-(6-Methyl-2-pyridyl)-4-phenyl-4H-1,3,4-oxadiazine-5(6H)-one hydrochloride], the IC50 came to 21.1 µM.
Same read-out and setting: next, `O=C1COC(c2ccccc2)=NN1c1ccccc1O` [Example 50, 2-Phenyl-4-(2-hydroxyphenyl)-4H-1,3,4-oxadiazine-5(6H)-one]: 27.9 µM; `O=C1COC(c2ccccc2OCCN2CCOCC2)=NN1C1CCCCC1` [Example 69, 2-{2-[2-(4-Morpholinyl)ethoxy]phenyl}-4-cyclohexyl-4H-1,3,4-oxadiazine-5(6H)-one hydrochloride]: 68.7 µM.
The same measure, in the same setting: as for `O=C1COC(c2ccccc2OCCN2CCCCC2)=NN1c1ccccc1` [Example 59, 2-{2-[2-(1-Piperidyl)ethoxy]phenyl}-4-phenyl-4H-1,3,4-oxadiazine-5(6H)-one], the figure is 8.29 µM; as for `O=C1COC(c2ncccc2O)=NN1c1ccccc1` [Example 14, 2-(3-Hydroxy-2-pyridyl)-4-phenyl-4H-1,3,4-oxadiazine-5(6H)-one], 1.56 µM.
Same read-out and setting: as for `Cn1cccc1C1=NN(c2ccccc2)C(=O)CO1` [Example 3, 2-(1-Methyl-2-pyrolyl)-4-phenyl-4H-1,3,4-oxadiazine-5(6H)-one], the figure is 33.2 µM; as for `Nc1cccc(C2=NN(c3ccccc3)C(=O)CO2)c1` [Example 78, 2-(3-aminophenyl)-4-phenyl-4H-1,3,4-oxadiazine-5(6H)-one], 31.8 µM; as for `O=C1COC(c2ccccc2OCCN2CCOCC2)=NN1c1ccccc1` [Example 56, 2-{2-[2-(4-Morpholinyl)ethoxy]phenyl}-4-phenyl-4H-1,3,4-oxadiazine-5(6H)-one hydrochloride], 17.6 µM.
On to `CN(C)c1cccc(C2=NN(c3ccccc3)C(=O)CO2)c1` [Example 90, 2-(3-Dimethylaminophenyl)-4-phenyl-4H-1,3,4-oxadiazine-5(6H)-one], for which the IC50 came to 31.4 µM.
Same read-out and setting: next, `O=C1C(O)SC(c2ccccc2)=NN1c1ccccc1` (stereo not shown) [Example 102, 2,4-Diphenyl-6-hydroxy-4-1,3,4-thiadiazine-5-one]: 8.2 µM; `O=C1COC(/C=C/c2ccccc2)=NN1c1ccccc1` [Example 15, 2-Styryl-4-phenyl-4H-1,3,4-oxadiazine-5(6H)-one]: 27.5 µM; `O=C1COC(c2ccccc2O)=NN1c1ccc(F)cc1` [Example 52, 2-(2-Hydroxyphenyl)-4-(4-fluorophenyl)-4H-1,3,4-oxadiazine-5(6H)-one]: 1.52 µM.
The same measure, in the same setting: next, `CN(C)CCOc1ccccc1C1=NN(c2ccccc2)C(=O)CO1` [Example 61, 2-[2-(2-Dimethylaminoethoxy)phenyl]-4-phenyl-4H-1,3,4-oxadiazine-5(6H)-one hydrochloride]: 4.61 µM; `CC1(C)OC(c2ccccc2)=NN(c2ccccc2)C1=O` [Example 107, 2,4-Diphenyl-6,6-dimethyl-4H-1,3,4-oxadiazine-5-one]: 6.4 µM; `O=C1C(c2ccccc2)OC(c2ccccc2)=NN1c1ccccc1` (stereo not shown) [Example 108, 2,4,6-triphenyl-4H-1,3,4-oxadiazine-5-one]: 13.2 µM.
As for `CC(c1cccnc1)N1N=C(c2ccccc2)OCC1=O` (stereo not shown) [Example 88, 2-Phenyl-4-[1-(3-pyridyl)ethyl]-4H-1,3,4-oxadiazine-5(6H)-one oxalate], the IC50 is 52.3 µM.
Still for that read-out and setting: next, `O=C1COC(c2ccccc2OCCN2CCCC2)=NN1c1ccccc1` [Example 60, 2-{2-[2-(1-Pyrrolidinyl)ethoxy]phenyl}-4-phenyl-4H-1,3,4-oxadiazine-5(6H)-one]: 7.26 µM; `CN(C)CCOc1ccccc1C1=NN(c2ccccc2Br)C(=O)CO1.Cl` [Example 54, 2-[2-(2-Dimethylamino)ethoxyphenyl]-4-(2-bromophenyl)-4H-1,3,4-oxadiazine-5(6H)-one hydrochloride]: 4.14 µM; `O=C1COC(c2ccccc2)=NN1C1CCCCC1` [Example 27, 2-Phenyl-4-cyclohexyl-4H-1,3,4-oxadiazine-5(6H)-one]: 33.1 µM.
Same read-out and setting: next, `O=C1COC(Cc2ccccc2)=NN1c1ccccc1` [Example 32, 2-Benzyl-4-phenyl-4H-1,3,4-oxadiazine-5(6H)-one]: 36.6 µM.

The test system of another series is male ddy mice. Description: Inhibitory action on AMPA-inducing spasm. The note with it: intravenous, 5 minutes before 1.5 nmol AMPA into the ventricle. It is filed as in vivo. How it is done:
A test compound or its solvent only was intravenously injected into 4-week-old male ddy mice, and 5 minutes later, 1.5 nmol AMPA was administered into the ventricle thereby inducing spasm. The action of the test chemical was judged by the presence or absence of spasm, and its dose causing 80% or more inhibition was regarded as an effective dose.
Regarding `N#Cc1ccccc1N1N=C(c2ccccc2)OCC1=O` [Example 36, 2-Phenyl-4-(2-cyanoeyphenyl)-4H-1,3,4-oxadiazine-5(6H)-one], the “effective dose (dose causing 80% or more inhibition of spasm)” value was found to be 10 mg/kg.
For `Cl.O=C1COC(c2ccccc2OCCN2CCOCC2)=NN1c1ccccc1Br` [Example 68, 2-{2-[2-(4-Morpholinyl)ethoxy]phenyl}-4-(2-bromophenyl)-4H-1,3,4-oxadiazine-5(6H)-one hydrochloride], the “effective dose (dose causing 80% or more inhibition of spasm)” value came out at 30 mg/kg.
Regarding `O=C1COC(c2ncccc2O)=NN1c1ccccc1` [Example 14, 2-(3-Hydroxy-2-pyridyl)-4-phenyl-4H-1,3,4-oxadiazine-5(6H)-one], the “effective dose (dose causing 80% or more inhibition of spasm)” value is recorded as 10 mg/kg.
Still for that read-out and setting: next, `CN(C)CCOc1ccccc1C1=NN(c2ccccc2Br)C(=O)CO1.Cl` [Example 54, 2-[2-(2-Dimethylamino)ethoxyphenyl]-4-(2-bromophenyl)-4H-1,3,4-oxadiazine-5(6H)-one hydrochloride]: 30 mg/kg.

Tested on in another series: not given
Assay: not given
Conditions: not given
As a reminder, the melting point is the temperature, or range, at which the solid turns liquid. Compound `O=C1COC(c2ccccn2)=NN1c1ccccc1` (as salt: hydrochloride) [Example 1, 2-(2-Pyridyl)-4-phenyl-4H-1,3,4-oxadiazine-5(6H)-one hydrochloride] gave a melting point of 149 to 150 °C.
Still for that read-out and setting: next, `CN(C)CCOc1ccccc1C1=NN(c2ccccc2Br)C(=O)CO1.Cl` [Example 54, 2-[2-(2-Dimethylamino)ethoxyphenyl]-4-(2-bromophenyl)-4H-1,3,4-oxadiazine-5(6H)-one hydrochloride]: 169 to 170 °C.
